Results published in patent US5968956A, “Substituted piperidine derivative and medicine comprising the same” (SS Pharmaceutical Co., Ltd., priority 1995, dated 1999).
pIC50: −log10 of the molar value. Where a name gives a salt, the structure may show the parent alone.

Legend:
[1] = system: bladder specimens enucleated from rats; experiment: Anticholinergic effect on bladder specimens enucleated from rats (contraction caused by acetylcholine); assay type: cell-based, rat (male S. D.); conditions: Rattus norvegicus; inhibition of contraction caused by acetylcholine (10^-5 M); Tyrode's solution 32° C.; agent applied 5 minutes before
Experimental: Anticholinergic effect on bladder specimens enucleated from rats:
(§1) Male S. D. rats weighing 220-450 g were exsanguinated to death to enucleate their bladders, thereby preparing vertically split specimens (3-5 mm wide by 10-15 mm long) with each triangular part removed therefrom. Each of the specimens was suspended in a Magnus bath filled with a Tyrode's solution (32° C.) aerated by a mixed gas (95% O2, 5% CO2) with a load of 0.5 g applied thereto. The response of the specimen was recorded in terms of isometric contraction through a tension transducer. After the stability of the specimen was attained, an effect on contraction caused by acetylcholine (10^-5 M) was investigated. Incidentally, agents to be tested were applied to the individual specimens in advance for 5 minutes before the test to investigate their effects.

[2] = system: bladder specimens enucleated from rats; experiment: Calcium antagonism against bladder specimens enucleated from rats (contraction caused by calcium chloride); assay type: cell-based, rat (male S. D.); conditions: Rattus norvegicus; inhibition of contraction caused by 10^-3 M calcium chloride after Ca removal with 1 mM EDTA; cumulative application; corrected for spontaneous relaxation
Experimental: as §1
Calcium antagonism against bladder specimens enucleated from rats:
After removal of calcium ion in specimens prepared in accordance with the testing method of Test Example 1 by adding 1 mM EDTA, 10^-3 M calcium chloride was applied to the specimens. After contraction caused by calcium chloride was stable, each of agents to be tested was applied cumulatively to the specimen. Assuming that the contraction upon the first application of the test agent was 100%, a value obtained by subtracting a spontaneous relaxation rage of a specimen, to which no agent was applied, from an inhibiting rate upon the application of the agent of varied concentrations was regarded as a contraction inhibiting rate.

Row | Structure (SMILES) | pIC50 [1] | IC30 [2]
1 | O=C(NC1CCN(Cc2ccccc2)CC1)C(O)(c1ccccn1)C1CCCC1 (stereo not shown) [Compound 49] | 8.19 | 
2 | CCCOC(C(=O)OC1CCN(C)CC1)(c1ccccc1)c1ccccc1 [Propiverine hydrochloride, reference compound] | 6.11 | 12100 nM
3 | O=C(NC1CCN(Cc2ccccc2)CC1)C(O)(c1ccccc1)C1CC1 (stereo not shown) [Compound 3] | 7.57 | 26600 nM
4 | O=C(NC1CCN(Cc2ccccc2)CC1)C(O)(c1ccccc1)C1CCCCC1 (stereo not shown) [Compound 1] | 7.49 | 2660 nM
5 | O=C(NC1CCN(Cc2ccccc2)CC1)C(O)(c1cccc(Cl)c1)C1CCCC1 (stereo not shown) [Compound 35] | 6.70 | 
6 | Cc1ccc(C(O)(C(=O)NC2CCN(Cc3ccccc3)CC2)C(C)C)cc1 (stereo not shown) [Compound 56] | 6.77 | 
7 | CC(C)C(O)(C(=O)NC1CCN(Cc2ccccc2)CC1)c1ccccc1 (stereo not shown) [Compound 23] | 7.18 | 
8 | CN1CCC(NC(=O)C(O)(c2ccccc2)C2CCCCC2)CC1 (stereo not shown) [Compound 2] | 6.36 | 
9 | COc1ccc(C(O)(C(=O)NC2CCN(Cc3ccccc3)CC2)C2CCCC2)cc1 (stereo not shown) [Compound 15] | 6.89 | 
10 | O=C(NC1CCN(Cc2ccccc2)CC1)C(O)(c1ccccc1)C1CCCC1 (stereo not shown) [Compound 4] | 7.47 | 2850 nM
11 | CC(C)C(O)(C(=O)NC1CCN(Cc2ccccc2)CC1)c1cccc(Cl)c1 (stereo not shown) [Compound 34] | 6.55 | 
12 | COc1cccc(C(O)(C(=O)NC2CCN(Cc3ccccc3)CC2)C2CCCC2)c1 (stereo not shown) [Compound 29] | 6.07 | 
